The values below come from patent publication US20140256644A1, “Treatment of Muscular Conditions and Muscular Dystrophies” (priority 2011, published 2014).

Experiment [1] concerns microtubule network in isolated FDB myofibers. In words: Fluorescence labeling and quantification of α-tubulin (microtubule network density). In kind it is cell-based, mouse. The following applies: Angiotensin II treatment over 24 hrs. The procedure: Isolated intact FBDs were plated on ECM gel from Engelbreth-Holm-Swarm murine sarcoma coated imaging dishes (MatTek, Ashland, Mass.). Following treatment, plated myofibers were fixed with 2% paraformaldehyde, permeabilized with 0.1% Triton X-100 in phosphate buffered saline (PBS), blocked in 8% bovine serum albumin in PBS, and then labeled overnight with an antibody to α-tubulin conjugated to Alexa Fluor 488 (anti-mouse; Invitrogen, Carlsbad, Calif., USA). Digital images were obtained with a BioRad Radiance fluorescent laser scanning confocal attached to an Olympus IX-70 inverted microscope. Laser intensity was adjusted on a sample-to-sample basis to maximize amount of microtubules that are visualized. A 35-image Z-stack was taken at 0.5 μm interval and the most representative 9 frames were stacked together using ImageJ (NIH, USA) to form a composite image. Quantification was performed on the binary image representation of the 9-image stack. Background was subtracted uniformly and image was transformed into a binary using ImageJ unbiased binary function. A uniform region of interest was selected and mean intensity measured.

Experiment [2] concerns C2C12 myotubes. The experiment is described as follows: Microtubule subunit content in myotubes. Type of experiment: cell-based.

“Angiotensin II: angiotensin II, increases microtubule density”: the “microtubule density in isolated FDB myofibers” value in experiment [1] is recorded as “increases microtubule density”; in experiment [1] (listed as angiotensin II), “densified the microtubule network”. The microtubule subunit content result in experiment [2] is on record as “increased microtubule subunit content”.
